In US20020155192A1, “Yeast transport isoforms” (priority 2000, published 2002):

Key:
Type in all cases: biochemical
[1] = target: T1, Odc1p (Saccharomyces cerevisiae, UniProt Q03028); assay: Efflux of [14C]oxoglutarate from proteoliposomes reconstituted with recombinant Odc1p; conditions: 10 mM oxoglutarate with 30 mM pyridoxal 5′-phosphate and 10 mM bathophenanthroline added together
T1 construct: made in house; host or cells: S. cerevisiae odc1Δodc2Δ (YPH499 background) carrying pYES2-based pODC1; purified from mitochondria on Ni-NTA agarose
T1 sequence (Q03028 1-310): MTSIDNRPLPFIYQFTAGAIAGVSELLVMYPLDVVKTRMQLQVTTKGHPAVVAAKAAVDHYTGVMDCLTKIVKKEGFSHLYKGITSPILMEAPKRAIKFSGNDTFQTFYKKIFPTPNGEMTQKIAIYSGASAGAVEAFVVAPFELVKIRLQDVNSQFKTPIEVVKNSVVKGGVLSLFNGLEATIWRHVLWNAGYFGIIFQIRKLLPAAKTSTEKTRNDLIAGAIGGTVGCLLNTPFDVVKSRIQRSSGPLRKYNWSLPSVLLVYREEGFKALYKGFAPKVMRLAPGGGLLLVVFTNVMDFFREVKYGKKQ
Protocol: FIG. 4. Efflux of [^14C]oxoglutarate from proteoliposomes. Proteoliposomes were reconstituted with recombinant Odc1p in the presence of 20 mM oxoglutarate, and then the internal substrate pool was labelled by carrier-mediated exchange equilibration. After removal of external substrate by Sephadex G-75 chromatography, the efflux of [^14C]oxoglutarate was started by adding buffer F alone (●) or 10 mM oxoglutarate (▪), or 10 mM oxoglutarate, 30 mM pyridoxal 5′-phosphate and 10 mM bathophenanthroline (□) in the same buffer.
External substrate was removed from proteoliposomes on a Sephadex G-75 column preequilibrated with buffer F (50 mM NaCl and 10 mM PIPES, pH 7.0). […] The external radioactivity was removed on Sephadex G-75 and the internal radioactivity was measured. […] The initial rate of transport was calculated in mmol/min per g protein from the time course of isotope equilibration (13). […] For efflux measurements, the internal substrate pool of the proteoliposomes was made radioactive by carrier-mediated exchange equilibration (13) with 0.1 mM [^14C]oxoglutarate added at high specific radioactivity. After 60 min, the residual external radioactivity was removed by passing the proteoliposomes again through a column of Sephadex G-75. […]

[2] = target: T1, Odc1p; assay: Effect of inhibitors and external compounds on the [14C]oxoglutarate/oxoglutarate exchange by proteoliposomes reconstituted with Odc1p; conditions: Odc1p; for Inhibition (%) of [14C]oxoglutarate/oxoglutarate exchange: 20 mM internal oxoglutarate, 0.4 mM [14C]oxoglutarate, 45 seconds, inhibitors 4 mM, except mercurials 10 μM, carboxyatractyloside 0.1 mM, N-ethylmaleimide and α-cyanocinnamate 2 mM; for inhibition of [14C]oxoglutarate/oxoglutarate exchange (in words): Table III
[3] = target: T2, Odc2p (Saccharomyces cerevisiae, UniProt Q99297); assay: Effect of inhibitors and external compounds on the [14C]oxoglutarate/oxoglutarate exchange by proteoliposomes reconstituted with Odc2p; conditions: Odc2p; for inhibition of [14C]oxoglutarate/oxoglutarate exchange (in words): Table III
T2 construct: made in house; host or cells: S. cerevisiae odc1Δodc2Δ (YPH499 background) carrying pYES2-based pODC2; purified from mitochondria on Ni-NTA agarose
T2 sequence (Q99297 1-307): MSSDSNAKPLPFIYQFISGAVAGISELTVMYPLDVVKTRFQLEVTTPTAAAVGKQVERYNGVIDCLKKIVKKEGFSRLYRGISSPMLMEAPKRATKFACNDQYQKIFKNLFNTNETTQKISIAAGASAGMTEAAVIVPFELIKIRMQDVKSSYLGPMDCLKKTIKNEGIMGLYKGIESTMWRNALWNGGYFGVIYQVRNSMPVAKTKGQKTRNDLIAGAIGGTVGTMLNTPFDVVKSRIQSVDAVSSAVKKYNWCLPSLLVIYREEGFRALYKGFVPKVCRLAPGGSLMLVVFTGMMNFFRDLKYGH

| Structure (SMILES) | effect on efflux of [14C]oxoglutarate induced by external oxoglutarate (in words) [1] | Inhibition (%) of [14C]oxoglutarate/oxoglutarate exchange [2] | inhibition of [14C]oxoglutarate/oxoglutarate exchange (in words) [2] | Inhibition (%) of [14C]oxoglutarate/oxoglutarate exchange ([3]; 20 mM internal oxoglutarate, 0.4 mM [14C]oxoglutarate, 45 seconds, inhibitors 4 mM, except mercurials 10 μM, carboxyatractyloside 0.1 mM, N-ethylmaleimide and α-cyanocinnamate 2 mM) | inhibition of [14C]oxoglutarate/oxoglutarate exchange (in words) [3] |
| --- | --- | --- | --- | --- | --- |
| c1ccc(-c2ccnc3c2ccc2c(-c4ccccc4)ccnc23)cc1 [Bathophenanthroline] | prevented completely | 97% | inhibited strongly | 89% | inhibited strongly |
| Cc1ncc(COP(=O)(O)O)c(C=O)c1O [Pyridoxal 5′-phosphate] | prevented completely | 92% | inhibited strongly |  | inhibited strongly |
